# Data from publication PMC2905049 (Bioorganic & medicinal chemistry, 2010).
# Assays:
# HIV-1NL4-3 = assay: Anti-HIV replication assay against HIV-1NL4-3 in MT-4 cell line; type: cell-based; details: for EC50 (μM): HIV-1NL4-3, MT-4 cell line, Table 3 screening, 9 as control; for EC50: Human immunodeficiency virus 1, MT4, read-out: HIV-1NL4-3 EC50 (μM)
# HIV-1IIIB = assay: Anti-HIV replication assay against wild-type HIV-1IIIB in MT-2 cell line; type: cell-based; details: for EC50 (μM): HIV-1IIIB replication in MT-2 cell line; for EC50: Human immunodeficiency virus 1, MT2
# [1] = system: RTMDR (multi-RT inhibitor-resistant strain); assay: Anti-HIV replication assay against RTMDR strain in MT-4 cell line; type: cell-based, HIV-1; details: Human immunodeficiency virus 1, MT4, read-out: RTMDR EC50 (μM)
# MT-2 cell line = assay: Compound toxicity by XTT in mock-infected MT-2 cells; type: cell-based; details: Homo sapiens, MT2
EC50 (μM) (HIV-1IIIB; Table 1),Compound,EC50 (HIV-1IIIB) [µM],EC50 (HIV-1NL4-3) [µM],EC50 [1] [µM],other results
,Cc1cc(=O)oc2c(CSC(=O)[C@@]34CC[C@@](C)(C(=O)O3)C4(C)C)c(OC(C)C)ccc12 [Compound 13],,,,EC50 (μM) (HIV-1NL4-3): moderate activity
,"COc1ccc(N(Cc2c(OC(C)C)ccc3c(C)cc(=O)oc23)C(=O)[C@@]23CC[C@@](C)(C(=O)O2)C3(C)C)cc1 [Compound 16, 8-[(N-4-Methoxyphenyl-N-(−)-camphanoyl)aminomethyl]-7-isopropoxy-4-methyl-2H-chromen-2-one]",,,,EC50 (μM) (HIV-1NL4-3): moderate activity
moderate activity,CCOc1c(C(C)=O)ccc2c1[C@@H](OC(=O)[C@@]13CC[C@@](C)(C(=O)O1)C3(C)C)[C@@H](OC(=O)[C@@]13CC[C@@](C)(C(=O)O1)C3(C)C)C(C)(C)O2 [Compound 5],,,,
,"Cc1cc(=O)oc2c([C@H](COC(=O)[C@@]34CC[C@@](C)(C(=O)O3)C4(C)C)OC(=O)[C@@]34CC[C@@](C)(C(=O)O3)C4(C)C)c(OC(C)C)ccc12 [Compound 7, 8-(1R,2-Di-O-(−)-camphanoyloxyethyl)-7-isopropoxy-4-methyl-2H-chromen-2-one]",> 20,> 20,> 20,
,"Cc1cn([C@H]2C[C@H](N=[N+]=[N-])[C@@H](CO)O2)c(=O)[nH]c1=O [AZT, zidovudine, reference compound]",,,,"TI (HIV-1IIIB; therapeutic index IC50/EC50, HIV-1IIIB, MT-2, Table 1): 42700; IC50 (MT-2 cell line): 1870 µM"
,"CCc1cc(=O)c2ccc3c(c2o1)[C@@H](OC(=O)[C@@]12CC[C@@](C)(C(=O)O1)C2(C)C)[C@@H](OC(=O)[C@@]12CC[C@@](C)(C(=O)O1)C2(C)C)C(C)(C)O3 [Compound 3, reference compound]",,,,"HIV-1NL4-3 TI (HIV-1NL4-3; therapeutic index IC50/EC50, MT-4, Table 2 screening): 116"
did not show anti-HIV activity,"CC(=O)c1ccc2c(c1C)[C@@H](OC(=O)[C@@]13CC[C@@](C)(C(=O)O1)C3(C)C)[C@@H](OC(=O)[C@@]13CC[C@@](C)(C(=O)O1)C3(C)C)C(C)(C)O2 [Compound 4, 3R,4R-Dicamphanoyloxy-2,2,5-trimethyl-6-acetyl-2H-chroman]",> 20,,,
,"Cc1cc(=O)oc2cc(OC(C)(C)[C@@H](COC(=O)[C@@]34CC[C@@](C)(C(=O)O3)C4(C)C)OC(=O)[C@@]34CC[C@@](C)(C(=O)O3)C4(C)C)ccc12 [Compound 6, 7-(2R,3-Di-O-(−)-camphanoyloxy-1,1-dimethylpropoxy)-4-methyl-2H-chromen-2-one]",> 20,> 20,> 20,

Compound,EC50 (μM) (HIV-1IIIB; Table 1),EC50 (HIV-1IIIB) [µM],EC50 (HIV-1NL4-3) [µM],EC50 [1] [µM],other results
Cc1cc(=O)oc2c([C@H](C)OC(=O)[C@@]34CC[C@@](C)(C(=O)O3)C4(C)C)c(OC(C)C)ccc12 [Compound 8],lost anti-HIV activity completely,> 20,> 20,> 20,
